ChEMBL document CHEMBL1201862, “PubChem BioAssay data set” (2004)
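Values below derive from 48-hour exposures of cells grown in 96-well plates, with endpoints linearly interpolated between the two concentrations bracketing the appropriate inhibition level. GI50 marks 50% less growth.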 Active and inactive are the calls of the source. Cut-off read from the data, not from the text of the source: active = GI50 up to about 1.1 µM and inactive = higher.

How the values were obtained:
Test in all cases: inhibition of tumour cell growth, NCI panel, 48 h
786-0 = system: 786-0
M14 = system: M14
LOX IMVI = system: LOX IMVI
ACHN = system: ACHN
UO-31 = system: UO-31
OVCAR-4 = system: OVCAR-4
SNB-75 = system: SNB-75
EKVX = system: EKVX
NCI-H226 = system: NCI-H226
RPMI-8226 = system: RPMI-8226
SK-MEL-2 = system: SK-MEL-2
HCC 2998 = system: HCC 2998
COLO 205 = system: COLO 205
SK-MEL-28 = system: SK-MEL-28
A549 = system: A549
SR = system: SR

Row | SMILES | GI50 (786-0) | GI50 (M14) | GI50 (LOX IMVI) | GI50 (ACHN) | GI50 (UO-31) | GI50 (OVCAR-4) | GI50 (SNB-75) | GI50 (EKVX) | GI50 (NCI-H226) | GI50 (RPMI-8226) | GI50 (SK-MEL-2) | GI50 (HCC 2998) | GI50 (COLO 205) | GI50 (SK-MEL-28) | GI50 (A549) | GI50 (SR)
1 | CCOC(=O)C1=C(C)C2C3C(=O)NC(=O)C3C1(C)C1C(=O)NC(=O)C21 (centres undefined) | > 100 µM (inactive) | > 100 µM (inactive) | > 100 µM (inactive) | > 100 µM (inactive) | > 100 µM (inactive) | > 100 µM (inactive) | > 100 µM (inactive) | > 100 µM (inactive) | < 0.01 µM (active) | > 100 µM (inactive) | > 100 µM (inactive) | > 100 µM (inactive) | > 100 µM (inactive) | > 100 µM (inactive) | > 100 µM (inactive) | 
2 | Cc1cccc(C2=NC(C)(C)C(C)(C)N=C2c2cccc(C)n2)n1 | > 100 µM (inactive) | 71.6 µM (inactive) | > 100 µM (inactive) | > 100 µM (inactive) | > 100 µM (inactive) | > 100 µM (inactive) | > 100 µM (inactive) | > 100 µM (inactive) | > 100 µM (inactive) | 34.6 µM (inactive) | > 100 µM (inactive) | > 100 µM (inactive) | 67.5 µM (inactive) | > 100 µM (inactive) | > 100 µM (inactive) | 
3 | CCOC(=O)c1cc(=O)n(C)c(=O)n1C | > 100 µM (inactive) | > 100 µM (inactive) | > 100 µM (inactive) | > 100 µM (inactive) | > 100 µM (inactive) | > 100 µM (inactive) | > 100 µM (inactive) | > 100 µM (inactive) | > 100 µM (inactive) |  | > 100 µM (inactive) | > 100 µM (inactive) | > 100 µM (inactive) | > 100 µM (inactive) | > 100 µM (inactive) | 
4 | COc1ccc(/C(=C\c2cc(OC)c(OC)c(OC)c2)C(=O)O)cc1 | 38 µM (inactive) | 26.6 µM (inactive) | 27.5 µM (inactive) | 72.8 µM (inactive) | 25.6 µM (inactive) | 85.7 µM (inactive) | 25.6 µM (inactive) | 57 µM (inactive) | 28.1 µM (inactive) | 27.4 µM (inactive) |  |  | 18.3 µM (inactive) | 76.4 µM (inactive) | 40.1 µM (inactive) | 38.8 µM (inactive)
5 | CC1=N/C(=C\c2ccc(/C=C3/N=C(C)OC3=O)cc2)C(=O)O1 | > 100 µM (inactive) | > 100 µM (inactive) | > 100 µM (inactive) | > 100 µM (inactive) | > 100 µM (inactive) | > 100 µM (inactive) | > 100 µM (inactive) |  |  | > 100 µM (inactive) | > 100 µM (inactive) | > 100 µM (inactive) | > 100 µM (inactive) | > 100 µM (inactive) | > 100 µM (inactive) | 
6 | OCC(O)C(OC1OC(CO)C(O)C(O)C1O)c1nn(-c2ccccc2)c2nc3cc(Cl)c(Cl)cc3cc12 (centres undefined) | > 100 µM (inactive) | > 100 µM (inactive) | > 100 µM (inactive) | > 100 µM (inactive) | > 100 µM (inactive) | > 100 µM (inactive) | > 100 µM (inactive) | > 100 µM (inactive) |  | > 100 µM (inactive) |  | > 100 µM (inactive) |  | > 100 µM (inactive) |  | > 100 µM (inactive)
7 | N#CC(C(=N/NC(N)=S)/C(=N/NC(N)=S)C(C#N)c1ccc(Cl)cc1)c1ccc(Cl)cc1 (centres undefined) | > 100 µM (inactive) | > 100 µM (inactive) | > 100 µM (inactive) | > 100 µM (inactive) | > 100 µM (inactive) | > 100 µM (inactive) | 31.3 µM (inactive) | > 100 µM (inactive) | > 100 µM (inactive) |  | > 100 µM (inactive) | > 100 µM (inactive) | > 100 µM (inactive) | 81.3 µM (inactive) | > 100 µM (inactive) | 
8 | O=c1c2cc(Br)ccc2nc(-c2ccccc2)n1NCC1(O)OCC(O)C(O)C1O (centres undefined) | > 100 µM (inactive) | > 100 µM (inactive) | > 100 µM (inactive) | > 100 µM (inactive) | > 100 µM (inactive) | 61.8 µM (inactive) | > 100 µM (inactive) | > 100 µM (inactive) | > 100 µM (inactive) | > 100 µM (inactive) | > 100 µM (inactive) |  | > 100 µM (inactive) | > 100 µM (inactive) | > 100 µM (inactive) | 48.8 µM (inactive)
9 | CCN(CC)C(=O)CCn1cc(F)c(=O)[nH]c1=O | > 100 µM (inactive) | > 100 µM (inactive) | > 100 µM (inactive) | > 100 µM (inactive) | > 100 µM (inactive) | > 100 µM (inactive) | 4.68 µM (inactive) | > 100 µM (inactive) | > 100 µM (inactive) | > 100 µM (inactive) | > 100 µM (inactive) |  | > 100 µM (inactive) | > 100 µM (inactive) | > 100 µM (inactive) | > 100 µM (inactive)
10 | CCOC(=O)C1N(S(=O)(=O)c2ccc(C)cc2)CCC12C(c1ccc(OC)c(OC)c1)=Nc1ccccc12 (centres undefined) | > 100 µM (inactive) | > 100 µM (inactive) | > 100 µM (inactive) | > 100 µM (inactive) | > 100 µM (inactive) | > 100 µM (inactive) | 35.5 µM (inactive) | > 100 µM (inactive) | > 100 µM (inactive) | > 100 µM (inactive) |  | > 100 µM (inactive) | > 100 µM (inactive) | > 100 µM (inactive) | > 100 µM (inactive) | 
11 | COc1ccc(C(=O)O)c(Cc2ccc3ccccc3c2)c1 | > 100 µM (inactive) | > 100 µM (inactive) | > 100 µM (inactive) | > 100 µM (inactive) | > 100 µM (inactive) | > 100 µM (inactive) | > 100 µM (inactive) | > 100 µM (inactive) | > 100 µM (inactive) | > 100 µM (inactive) | > 100 µM (inactive) |  | > 100 µM (inactive) | > 100 µM (inactive) | > 100 µM (inactive) | > 100 µM (inactive)
12 | [N-]=[N+]=Nc1cc(=O)n(-c2ccccc2)c2ccccc12 | > 100 µM (inactive) | > 100 µM (inactive) | > 100 µM (inactive) | > 100 µM (inactive) | > 100 µM (inactive) | > 100 µM (inactive) | 70.8 µM (inactive) |  | > 100 µM (inactive) | > 100 µM (inactive) | > 100 µM (inactive) |  | > 100 µM (inactive) | > 100 µM (inactive) | > 100 µM (inactive) | > 100 µM (inactive)
13 | CCCCCCCCCCCCCP(=O)(O)O | > 100 µM (inactive) | > 100 µM (inactive) | > 100 µM (inactive) | > 100 µM (inactive) | > 100 µM (inactive) | > 100 µM (inactive) | 23.2 µM (inactive) | > 100 µM (inactive) | > 100 µM (inactive) |  | > 100 µM (inactive) | > 100 µM (inactive) | > 100 µM (inactive) | > 100 µM (inactive) | > 100 µM (inactive) | 
14 | CCC(/C(=N\Nc1c(Cl)cc(Cl)cc1Cl)c1ccccc1)n1ccnc1C (centres undefined) | 11.7 µM (inactive) | 13.3 µM (inactive) | 12.2 µM (inactive) | 5.52 µM (inactive) | 5.97 µM (inactive) | 10.5 µM (inactive) | 14.6 µM (inactive) | 17.3 µM (inactive) | 15.2 µM (inactive) | 3.99 µM (inactive) | 13.3 µM (inactive) | 3.66 µM (inactive) | 11.6 µM (inactive) | 14.7 µM (inactive) | 13.8 µM (inactive) | 
